# Laboratory results taken from patent US8975384B2, “Tag peptide and use thereof” (Osaka University, priority 2008, dated 2015).
# Read-outs that look alike come from different tables or passages of the source.
# B1: P20.1 Ab: monoclonal antibody produced by mouse-mouse hybridoma P20.1 (FERM BP-11061), IgG1 isotype, λ light chains, against N-terminal 20 residues of human PAR4 (antibody, V domains shown)
# VH: QIQLVQSGPEVQKPGETVRISCKASGYTFTTAGMQWVQKMPGKSLKWIGWINTRSGVPKYAEDFKGRFAFSLETSASIAYLHINNLKNEDTATYFCAREGPGFVYWGQGTLVTVSA
# VL: QTVVTQESALTTSPGETVTLTCRSSTGVVTTSNYANWVQEKPDHLFTGLIVGTNNRVPGVPPRFSGSLIGDKAALTITGAQTEDEAIYFCALWYSNHWVFGGGTKLTVL
# Assays:
# P20.1 antibody [1] = assay: Epitope analysis by ELISA with P4-Fn proteins and Ala mutants; type: binding, mouse; conditions: coated Fn fusion protein 10 μg/mL, P20.1 antibody 2 to 5 μg/mL, absorbance 405 nm
# Procedure: The minimum peptide sequence required for recognition by the P20.1 antibody was identified by the ELISA method using various kinds of P4-Fn proteins prepared in the above (2-1). The protocol is as follows.
# (1) A P4-Fn (or a mutant thereof) solution diluted at 10 μg/mL was added at 50 μL/well to 96-well plates, which were then allowed to stand (4° C., 16 hours).
# (2) The supernatant of each well was removed with an aspirator, a 1% BSA solution in Tris-buffered saline (TBS; 20 mM Tris-HCl, 150 mM NaCl, pH 7.5) was added at 200 μL/well, and the plates were allowed to stand at room temperature for 1 hour.
# (3) A P20.1 antibody solution (2 to 5 μg/mL) was added at 50 μL/well and the plates were allowed to stand at room temperature for 1 hour.
# (4) Each well was washed with 200 μL of TBS 3 times.
# (5) A peroxidase-labeled anti-mouse IgG (1/1000 dilution) was added at 50 μL/well, and the plates were allowed to stand at room temperature for 30 minutes.
# (6) Each well was washed with 200 μL of TBS 4 times.
# (7) A peroxidase chromogenic substrate (ABTS) was added at 100 μL/well, the plates were allowed to stand at room temperature for 5 to 10 minute, and then the absorbance of the solution in each well was measured at 405 nm.
# The ELISA results of 5 different tag peptide fusion proteins having the P4 peptide attached to the N terminus of the Fn are shown in FIG. 5. […]
# P20.1 antibody-Sepharose = assay: Pull-down efficiency with P20.1 antibody-immobilized beads; type: binding, mouse; conditions: pull-down by P20.1 antibody-Sepharose
# Procedure: Three different hGH-γC-P4 fusion proteins, which have P4×1, P4×3 or P4×5, were separately expressed in HEK293T cells. The fusion protein in the separate cell culture supernatant was quantified by the sandwich ELISA (which adopts a system of hGH antibody-mediated capture+anti-BAS serum-mediated detection, and is not dependent on the responsiveness to the P20.1 antibody) (before pull-down). Aside from this, to 1 mL of the cell culture supernatant, 20 μL of the P20.1 antibody-Sepharose (bead form) was added, and then the mixture was allowed to react at 4° C. for 1 hour. After the beads were precipitated by centrifugation, the fusion protein in the supernatant was quantified by the sandwich ELISA (which adopts a system of hGH antibody-mediated capture+anti-BAS serum-mediated detection, and is not dependent on the responsiveness to the P20.1 antibody) (after pull-down). The fusion protein purified with Ni-NTA agarose was used as a standard, and based on the standard curve, the fusion protein concentrations before and after pull-down by the P20.1 antibody were determined. As is clear from Table 4, 3 to 5 repeats of the P4 sequence achieves the binding efficiency of about 80%.
# P20.1 antibody [2] = assay: Sandwich ELISA, P20.1 antibody as detection antibody; type: binding, mouse; conditions: diluted cell supernatant, biotinylated P20.1 antibody 5 μg/mL, absorbance 405 nm
# Procedure: The anti-hGH monoclonal antibody HGH-B was immobilized to microtiter plates. After blocking, the supernatant of cells transiently expressing the hGH-γC-P4 fusion protein having P4×1, P4×3 or P4×5 linked thereto (see FIG. 3, FIG. 4 and SEQ ID NO: 15) was added at various dilution ratios to wells of the plates, which were then allowed to stand at 4° C. overnight. In this way, such a fusion protein was captured by the antibody on the plates. After washing, a biotinylated P20.1 antibody (5 μg/mL) was allowed to react with the fusion protein at room temperature for 30 minutes. After 3-time washing, peroxidase-labeled streptavidin (Zymed) was added to the plates, which were then allowed to stand at room temperature for additional 15 minutes. After addition of peroxidase substrate (ABTS), the absorbance at 405 nm was measured.
# P20.1 antibody [3] = assay: Kinetics analysis by surface plasmon resonance, P4 sequence repeats over P20.1 antibody-immobilized sensor chip; type: binding, mouse; conditions: hGH-γC fusion proteins, flow rate 20 μL/min, Biacore X-100
# Procedure: For improvement of the efficacious affinity for the P20.1 antibody, tag peptide fusion proteins having a repeated sequence, specifically 1, 3 or 5 repeats of the P4 sequence (referred to as P4×1, P4×3 or P4×5, in the above order) were prepared (see the above (2-2)). These proteins were allowed to separately pass at a flow rate of 20 μL/min over the P20.1 antibody-immobilized sensor chip, and kinetics analysis was conducted using Biacore X-100 (GE Healthcare).
# [4] = test system: P4(20)-Fn protein-P20.1 antibody binding; assay: Competitive dissociation by peptide (ELISA); conditions: peptide concentration of 0.1 mg/mL, 30 minutes
# Procedure: For examination on whether an excess of free peptides can disrupt protein-P20.1 antibody binding, at the final washing step of the (3-1) ELISA experiment using the P4(20)-Fn protein, buffer solutions containing different concentrations of the P4(C8) peptide (8-residue peptide PRGYPGQV (SEQ ID NO: 20) synthesized by the Fmoc method) were added to wells and the plates were allowed to stand for 30 minutes.
# [5] = test system: P4×3-tagged hGH fusion protein bound to P20.1 antibody-Sepharose; assay: Elution of P4×3-tagged hGH fusion protein from P20.1 antibody-Sepharose; conditions: in TBS, room temperature, 10 minutes
# Procedure: With 8 mL of the culture supernatant of cells expressing the P4×3-tagged hGH fusion protein, 100 μL of the P20.1 antibody-Sepharose (0.2 mg in terms of the P20.1 antibody, bead form) was mixed, and then the mixture was allowed to react at 4° C. for 3 hours. After the reaction, the beads were washed with 3 mL of Tris-buffered saline (TBS; 20 mM Tris-HCl, 150 mM NaCl, pH 7.5), and 300 μL of an eluent as shown below was added to and mixed with the beads at room temperature for 10 minutes. The effluent obtained by each eluent was concentrated and then was subjected to SDS gel electrophoresis at an equal amount. For comparison, affinity binding was also performed using Ni-NTA beads on the same conditions as above, and the effluent obtained by use of imidazole as an eluent was analyzed simultaneously.
# The above-mentioned numbers correspond to the lane numbers in FIG. 23 (a). “Ni” indicates the effluent from Ni-NTA beads. As shown in FIG. 23 (a), the tagged fusion protein which was bound to the P20.1 antibody-Sepharose was not only eluted with 0.1 mg/mL or more of the P4(C8) peptide, but also completely eluted by combined use of propylene glycol and sodium chloride. […]
# [6] = Phage display random screening of the peptide sequence recognizable by the P20.1 antibody; type: binding; conditions: panning with P20.1 antibody-immobilized magnetic beads
# From the text: For extensive search for the peptide sequence recognizable by the P20.1 antibody, the phage display method was employed. The phagemid shown in FIG. 11 was constructed for insertion of the randomized 7-amino-acid peptide library (all of them have Tyr2 and Gln5 in common) into the N terminus of the gIII coat protein of M13 phage. As a result, the phage library of 10^7 members was obtained.
# Through panning by use of P20.1 antibody-immobilized magnetic beads, a number of clones bound to the beads were obtained. The sequence of the variable region in these different clones was decoded by DNA sequencing, and the sequence pattern as shown in FIG. 12 was obtained. […] Namely, it can be said that the P20.1 antibody generally has a high affinity for the following peptide sequence: X1-Tyr2-Pro3-Gly4-Gln5-X6: SEQ ID NO:21 (wherein X1 is any amino acid residue; Pro3 may be an amino acid having a small side chain, such as S, V, C, A, T, E, G and D; and X6 is any hydrophobic amino acid). X-Ray Crystallography of the P20.1 Antibody Fab Fragment-Peptide Complex (5-1) Amino Acid Sequencing of the P20.1 Antibody Variable Region DNA Cloning from Hybridoma
# P4(20)-Fn = target: T1, P4(20)-Fn (Homo sapiens, UniProt P02751); assay: Surface plasmon resonance analysis (Biacore): binding affinity of P20.1 antibody for P4 peptide sequence
# T1 construct: the 9th to 10th region of the Fn3 domain of human fibronectin (185 residues); made in house; host or cells: pET11c vector
# Procedure: For examination on the binding affinity of the P20.1 antibody for the P4 peptide sequence, the surface plasmon resonance analysis using Biacore was performed. After the P4(20)-Fn (see FIG. 1) purified in the (2-1) was biotinylated and then captured by a streptavidin-immobilized sensor chip, a purified P20.1 antibody was allowed to flow over the prepared sensor chip at various concentrations. […] Similarly, a commercially available Flag ([…] (SEQ ID NO: 19)) and corresponding antibody M2 were used for examination on the affinity of M2 for Flag-tagged Fn (Flag-Fn).
# [7] = P20.1 antibody flowed over biotinylated P4(20)-Fn captured on streptavidin sensor chip
molecule,measurement,setting,value
GGDDSTPSILPAPRGYPGQVC [P4 peptide],recognition by / responsiveness to the P20.1 antibody,P20.1 antibody [1],can be recognized by the P20.1 antibody
GYPGQV [P4 sequence],recognition by / responsiveness to the P20.1 antibody,P20.1 antibody [1],enough for recognition by the P20.1 antibody
P4 × 3: hGH/fibrinogen γC fusion protein tagged with 3 repeats of the P4 sequence GYPGQV,Binding efficiency,P20.1 antibody-Sepharose,78%
same,signals in sandwich ELISA,P20.1 antibody [2],dose-dependent signals were observed in 30-fold or less diluted supernatant
P4 × 5: hGH/fibrinogen γC fusion protein tagged with 5 repeats of the P4 sequence GYPGQV,Binding efficiency,P20.1 antibody-Sepharose,80%
same,affinity / binding capacity for the P20.1 antibody,P20.1 antibody [3],further increased binding capacity
same,signals in sandwich ELISA,P20.1 antibody [2],dose-dependent signals were observed in 30-fold or less diluted supernatant
P4: hGH/fibrinogen γC fusion protein tagged with 1 repeat of the P4 sequence GYPGQV,Binding efficiency,P20.1 antibody-Sepharose,14%
same,affinity / binding capacity for the P20.1 antibody,P20.1 antibody [3],extremely weak affinity
same,signals in sandwich ELISA,P20.1 antibody [2],only weak signals were detected in 3-fold or less diluted supernatant
PRGYPGQV [P4(C8) peptide],dissociation of protein-P20.1 antibody binding by free peptide,[4],almost complete dissociation
same,peptide concentration that eluted the tagged fusion protein,[5],≥ 0.1 mg/mL
B1,peptide sequence required for recognition,[6],"requires the presence of tyrosine, glycine and glutamine at position 2, 4 and 5"
same,Ka,P4(20)-Fn; [7],365000 M⁻¹ s⁻¹
same,Kd(1/s),P4(20)-Fn; [7],0.00123 s⁻¹
same,Kd,"P4(20)-Fn; P20.1 antibody flowed over biotinylated P4(20)-Fn captured on streptavidin sensor chip, read-out: KD",3.38 nM
same,Kd,"P4(20)-Fn; affinity for the P4(20)-Fn, read-out: apparent dissociation equilibrium constant (Kd)",~3.4 nM
